Results from the RepoRT retention time repository (doi:10.1016/j.foodchem.2021.129757).

How the values were obtained:
Conditions in all cases: stereoisomer not certain
[1] = RP, Agilent ZORBAX Eclipse XDB-C18, 100 × 2.1 mm, 1.8 µm, 50 °C, 0.4 mL/min, estimated dead time 0.55 min; A: water + 0.1% formic acid, pH 3; B: methanol + 0.1% formic acid, pH 3; gradient (min/%B) 0/2 10/100 14.5/100 14.51/2 16.5/2
[2] = RP, Agilent ZORBAX RRHD Eclipse Plus C18, 50 × 2.1 mm, 1.8 µm, 30 °C, 0.4 mL/min, estimated dead time 0.28 min; A: water + 0.1% formic acid, pH 3; B: acetonitrile + 0.1% formic acid, pH 3; gradient (min/%B) 0/1 5/10 8/25 9.1/99 10/99 12/1
[3] = RP, Agilent ZORBAX RRHD Eclipse Plus C18, 50 × 2.1 mm, 1.8 µm, 30 °C, 0.4 mL/min, estimated dead time 0.28 min; A: water + 0.1% formic acid, pH 3; B: acetonitrile + 0.1% formic acid, pH 3; gradient (min/%B) 0/1 5/10 8/25 9.1/99 10/99 12/99
[4] = RP, Waters Atlantis T3, 100 × 2.1 mm, 3 µm, 40 °C, 0.3 mL/min, estimated dead time 0.73 min; A: water + 0.1% trifluoroacetic acid, pH 2; B: acetonitrile + 0.1% trifluoroacetic acid, pH 2; gradient (min/%B) 0/10 1/10 6/40 7/50 8/50 14/70 16/80 20/10 25/10
[5] = Other, Phenomenex Kinetex PFP, 100 × 4.6 mm, 2.6 µm, 35 °C, 1.5 mL/min, estimated dead time 0.71 min; A: water + 0.1% trifluoroacetic acid, pH 2; B: acetonitrile + 0.1% trifluoroacetic acid, pH 2; gradient (min/%B) 0/1 7/7.5 14/7.6 17/10 18.5/12 20/12.5 24/30 25/90 25.1/1 32/1
[6] = RP, Agilent InfinityLab Poroshell 120 EC-C18, 100 × 3 mm, 2.7 µm, 25 °C, 0.4 mL/min, estimated dead time 1.1 min; A: water + 0.1% formic acid, pH 3; B: acetonitrile + 0.1% formic acid, pH 3; gradient (min/%B) 0/5 10/25 20/40 24/90 25/90 26/5 30/5
[7] = Other, Phenomenex Kinetex PFP, 100 × 4.6 mm, 5 µm, 45 °C, 0.6 mL/min, estimated dead time 1.8 min; A: water + 0.1% trifluoroacetic acid, pH 2; B: methanol; gradient (min/%B) 0/40 20/72 21/40
[8] = RP, 150 × 2.1 mm, 2.6 µm, 40 °C, 0.35 mL/min, estimated dead time 0.94 min; A: water + 0.1% formic acid, pH 3; B: acetonitrile + 0.1% formic acid, pH 3; gradient (min/%B) 0/0 1/0 12.5/100 14/100 14.2/0 15/0
[9] = RP, 150 × 2.1 mm, 2.6 µm, 40 °C, 0.35 mL/min, estimated dead time 0.94 min; A: water + 0.1% formic acid, pH 3; B: acetonitrile + 0.1% formic acid, pH 3; gradient (min/%B) 0/0 1/5 7/45 8.5/80 10.5/80 11/5 12/5
[10] = RP, Phenomenex Synergi Hydro-RP, 250 × 2 mm, 4 µm, 25 °C, 0.2 mL/min, estimated dead time 2.5 min; A: water + 0.1% formic acid, pH 3; B: acetonitrile + 0.1% formic acid, pH 3; gradient (min/%B) 0/0.5 7/0.5 12/12.5 25/16.3 47/35 48/65 50/65 50.1/0.5
[11] = RP, Phenomenex Kinetex EVO C18, 100 × 2.1 mm, 2.6 µm, 40 °C, 0.4 mL/min, estimated dead time 0.55 min; A: water + 0.2% formic acid; B: acetonitrile + 0.2% formic acid; gradient (min/%B) 0/5 0.5/5 7/95 8/95 8.5/5 12/5
[12] = RP, Waters ACQUITY UPLC HSS T3, 100 × 2.1 mm, 50 °C; A: water + 0.1% formic acid, pH 3; B: 30% methanol + 70% acetonitrile + 0.1% formic acid, pH 3; gradient (min/%B) 0/5 1/8 2/15 3/40 4/70 4.5/100 5/100 6.4/100 6.6/5 6.8/5 7/5
[13] = RP, Waters ACQUITY UPLC BEH C18, 100 × 2.1 mm, 1.7 µm, 65 °C, 0.4 mL/min, estimated dead time 0.55 min; A: water + 0.1% formic acid, pH 3; B: 80% acetonitrile + 20% acetone + 0.1% formic acid, pH 3; gradient (min/%B) 0/0 5/100 5.5/0 6/0
[14] = RP, Merck LiChrospher RP-18, 250 × 4 mm, 5 µm, 35 °C, 0.3 mL/min, estimated dead time 6.7 min; A: water + 0.5% formic acid; B: acetonitrile + 0.5% formic acid; gradient (min/%B) 0/5 10/5 30/15 45/20 65/20 95/54 110/63 115/5 135/5
[15] = RP, 50 × 0.5 mm, 2.7 µm, 35 °C, 0.01 mL/min, estimated dead time 0.62 min; A: water + 0.1% formic acid, pH 3; B: acetonitrile + 0.1% formic acid, pH 3; gradient (min/%B) 0/5 12/95 14/95 16/5
[16] = RP, Phenomenex Synergi Hydro-RP, 150 × 2 mm, 4 µm, 30 °C, 0.5 mL/min, estimated dead time 0.6 min; A: water + 0.1% formic acid, pH 3; B: acetonitrile + 0.1% formic acid, pH 3; gradient (min/%B) 0/5 1/5 35/45 40/100 45/100
[17] = RP, Phenomenex Luna C18, 150 × 4.6 mm, 3 µm, 25 °C, 0.5 mL/min, estimated dead time 3.2 min; A: water + 0.1% formic acid, pH 3; B: acetonitrile + 0.1% formic acid, pH 3; gradient (min/%B) 0/0 30/30 35/40 50/80 52/80 60/0 65/0
[18] = RP, Phenomenex Luna Omega Polar C18, 100 × 2.1 mm, 1.6 µm, 40 °C, 0.5 mL/min, estimated dead time 0.44 min; A: water + 0.1% formic acid + 10 mM ammonium formate; B: acetonitrile; gradient (min/%B) 0/5 8/20 10/100 12/100 12.1/5 14/5
[19] = RP, Waters ACQUITY UPLC HSS T3, 100 × 2.1 mm, 1.8 µm, 30 °C, 0.4 mL/min, estimated dead time 0.55 min; A: water + 0.1% formic acid, pH 3; B: acetonitrile + 0.1% formic acid, pH 3; gradient (min/%B) 0/0 2/0 15/100 22/100 22.1/0 26/0
[20] = RP, Waters ACQUITY UPLC BEH Shield RP18, 100 × 2.1 mm, 1.7 µm, 30 °C, 0.6 mL/min, estimated dead time 0.37 min; A: water + 0.1% formic acid, pH 3; B: acetonitrile + 0.1% formic acid, pH 3; gradient (min/%B) 0/0 2/0 7/10 22/95 22.1/0 26/0
[21] = RP, Waters ACQUITY UPLC BEH Shield RP18, 150 × 2.1 mm, 1.7 µm, 40 °C, 0.4 mL/min, estimated dead time 0.83 min; A: water + 0.1% formic acid, pH 3; B: acetonitrile + 0.1% formic acid, pH 3; gradient (min/%B) 0/0 30/50 31/100 37/100 37.1/0
[22] = RP, Merck Supelco SUPELCOSIL LC-C18, 250 × 4.6 mm, 5 µm, 40 °C, 1 mL/min, estimated dead time 2.6 min; A: water + 0.1% trifluoroacetic acid, pH 2; B: acetonitrile + 0.1% trifluoroacetic acid, pH 2; gradient (min/%B) 0/5 45/35 47/75 49/35 50/5
[23] = RP, Phenomenex Luna Omega Polar C18, 100 × 2.1 mm, 1.6 µm, 40 °C, 0.5 mL/min, estimated dead time 0.44 min; A: water + 0.5% formic acid; B: acetonitrile + 0.5% formic acid; gradient (min/%B) 0/5 3/50 3.1/100 5/100 5.1/5 7/5

## O=C(O)c1cccc(O)c1O [2,3-Dihydroxybenzoic acid]
[1]
  LC retention time: 3.5 min
[2]
  LC retention time: 5.18 min
[3]
  LC retention time: 3.99 min
[4]
  LC retention time: 4.79 min
[5]
  LC retention time: 9.73 min

## O=C(O)c1ccc(O)cc1O [2,4-Dihydroxybenzoic acid]
[2]
  LC retention time: 5.18 min
[3]
  LC retention time: 3.99 min
[6]
  LC retention time: 6.36 min
[4]
  LC retention time: 5.01 min
[5]
  LC retention time: 10.9 min

## O=C(O)Cc1ccc(O)c(O)c1 [3,4-Dihydroxyphenylacetic acid]
[7]
  LC retention time: 3.74 min
[8]
  LC retention time: 7.07 min
[9]
  LC retention time: 7.28 min
[1]
  LC retention time: 2.55 min
[2]
  LC retention time: 3.6 min
[3]
  LC retention time: 1.47 min
[10]
  LC retention time: 17 min
[5]
  LC retention time: 15.3 min

## O=Cc1ccc(O)cc1 [4-Hydroxybenzaldehyde]
[11]
  LC retention time: 3.43 min
[12]
  LC retention time: 3.28 min
[1]
  LC retention time: 3.42 min
[13]
  LC retention time: 1.92 min
[2]
  LC retention time: 5.23 min
[3]
  LC retention time: 4.4 min
[5]
  LC retention time: 9.81 min

## O=C(O)c1ccccc1 [Benzoic acid]
[7]
  LC retention time: 7.84 min
[14]
  LC retention time: 71.8 min
[1]
  LC retention time: 5.17 min
[2]
  LC retention time: 7.44 min
[3]
  LC retention time: 7.28 min
[10]
  LC retention time: 35.5 min
[5]
  LC retention time: 15.4 min

## COc1cc(CC(=O)O)ccc1O [Homovanillic acid]
[15]
  LC retention time: 3.03 min
[16]
  LC retention time: 10.2 min
[17]
  LC retention time: 16.4 min
[18]
  LC retention time: 4.17 min
[19]
  LC retention time: 8.67 min
[1]
  LC retention time: 3.69 min
[20]
  LC retention time: 16 min
[21]
  LC retention time: 10.3 min
[2]
  LC retention time: 5.94 min
[3]
  LC retention time: 2.83 min
[6]
  LC retention time: 6.83 min
[5]
  LC retention time: 18.8 min

## O=C(CCc1ccc(O)cc1)c1c(O)cc(O)cc1OC1OC(CO)C(O)C(O)C1O (configuration not stated) [Phloridzin]
[14]
  LC retention time: 81.1 min
[19]
  LC retention time: 9.96 min
[21]
  LC retention time: 14.2 min
[22]
  LC retention time: 30.8 min
[10]
  LC retention time: 39.6 min
[4]
  LC retention time: 8.22 min
[5]
  LC retention time: 24.6 min

## O=C(O)c1ccc(O)c(O)c1 [Protocatechuic acid]
[15]
  LC retention time: 1.76 min
[7]
  LC retention time: 3.85 min
[11]
  LC retention time: 1.55 min
[16]
  LC retention time: 5.02 min
[23]
  LC retention time: 1.54 min
[17]
  LC retention time: 9.27 min
[14]
  LC retention time: 29.7 min
[18]
  LC retention time: 2.06 min
[19]
  LC retention time: 7.22 min
[1]
  LC retention time: 2.31 min
[13]
  LC retention time: 1.48 min
[20]
  LC retention time: 5.2 min
[21]
  LC retention time: 4.01 min
[2]
  LC retention time: 2.12 min
[3]
  LC retention time: 1.38 min
[22]
  LC retention time: 7.9 min
[6]
  LC retention time: 3.96 min
[10]
  LC retention time: 16.4 min
[4]
  LC retention time: 2.23 min
[5]
  LC retention time: 4.92 min

## O=C(O)c1ccccc1O [Salicylic acid]
[14]
  LC retention time: 81.6 min
[19]
  LC retention time: 10.5 min
[1]
  LC retention time: 5.25 min
[21]
  LC retention time: 12.8 min
[2]
  LC retention time: 8.13 min
[3]
  LC retention time: 8.16 min
[10]
  LC retention time: 37.4 min
[5]
  LC retention time: 18.9 min

## COc1cc(C=CC(=O)O)cc(OC)c1O [Sinapic acid]
[15]
  LC retention time: 4.25 min
[8]
  LC retention time: 2.81 min
[9]
  LC retention time: 2.79 min
[16]
  LC retention time: 15.2 min
[23]
  LC retention time: 2.53 min
[17]
  LC retention time: 25.1 min
[18]
  LC retention time: 7.22 min
[19]
  LC retention time: 9.44 min
[1]
  LC retention time: 4.97 min
[13]
  LC retention time: 2.1 min
[20]
  LC retention time: 12.5 min
[21]
  LC retention time: 11.1 min
[2]
  LC retention time: 7.6 min
[3]
  LC retention time: 7.99 min
[22]
  LC retention time: 23.3 min
[6]
  LC retention time: 9.78 min
[10]
  LC retention time: 33 min
[5]
  LC retention time: 22.3 min

## COc1cc(C(=O)O)ccc1O [Vanillic acid]
[15]
  LC retention time: 2.97 min
[8]
  LC retention time: 3.6 min
[9]
  LC retention time: 3.36 min
[23]
  LC retention time: 2.07 min
[17]
  LC retention time: 15.7 min
[12]
  LC retention time: 3.2 min
[14]
  LC retention time: 44.7 min
[18]
  LC retention time: 4.01 min
[19]
  LC retention time: 8.52 min
[1]
  LC retention time: 3.61 min
[13]
  LC retention time: 1.8 min
[20]
  LC retention time: 9.67 min
[21]
  LC retention time: 6.96 min
[2]
  LC retention time: 4.25 min
[3]
  LC retention time: 1.83 min
[22]
  LC retention time: 13.7 min
[6]
  LC retention time: 6.3 min
[10]
  LC retention time: 22.1 min
[4]
  LC retention time: 10 min
[5]
  LC retention time: 9.34 min
